What was measured:
CONAR (field bindweed) [1] = experiment: Pre-emergence herbicidal activity, warm season; type: in vivo, Convolvulus arvensis; conditions: GR80 = lowest tested rate (300, 100, 30, 10 g/ha) with 80% or greater inhibition; approx. 14 days after treating; 30/21° C.
In short: (§1)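 Seeds sown in sterilised fertilised topsoil received surface-applied compound in 50:50 acetone/water, typically at 300, 100, 30 and 10 g/ha, then greenhouse-grown at 30/21° C (warm-season species) or 18/13° C (cool-season species). Percent inhibition versus untreated plants was scored at about 14 days, giving GR80; an asterisk marks activity short of 80% at the top rate.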

ALOMY (blackgrass) = experiment: Post-emergence herbicidal activity, cool season; type: in vivo, Alopecurus myosuroides; conditions: abraded plants sprayed at 300, 100, 30 and 10 g/ha; about 14 days after treatment
In short: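 Read-out was GR80, derived from percent growth inhibition relative to abraded, unsprayed control plants, observed roughly 14 days after spraying. Compounds in 50:50 acetone/water were applied at 300, 100, 30 and 10 g/ha to seedlings 9 to 14 days old whose foliage had been sand-abraded to aid uptake.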

LOLMG (annual ryegrass) = experiment: Pre-emergence herbicidal activity, cool season; type: in vivo, Lolium multiflorum; conditions: GR80 = lowest tested rate (300, 100, 30, 10 g/ha) with 80% or greater inhibition; approx. 14 days after treating; 18/13° C.
In short: as §1

KCHSC (kochia) [2] = experiment: Pre-emergence herbicidal activity, cool season; type: in vivo, Kochia scoparia; conditions: lowest tested rate with 80% or greater inhibition; rates 300, 100, 30, 10 g/ha; about 14 days
Protocol: Tables 5 to 8 summarize results of tests conducted as described below to determine the pre-emergence herbicidal activity, in the form of a GR80 value, of illustrative compounds of this invention. […] Compounds of the invention were typically applied at rates of 300, 100, 30, and 10 g/ha. Where herbicidal activity was evident but 80% inhibition was not achieved at the highest rate tested, an asterisk (*) is shown in the following tables.
The pre-emergence tests were conducted by the following procedure. Topsoil was sieved to pass through a 1.27 cm screen. Fertilizer was added to the topsoil and the mixture was then sterilized by heating. The topsoil mixture was placed in a pot and compacted to a depth of 1.0 to 1.25 cm from the top of the pot. Seeds of each of several monocotyledonous and dicotyledonous annual plant species were placed on top of the soil. Additional soil was subsequently placed over the seeds to level-fill the pot. A known amount of each test compound dissolved or suspended in an appropriate organic solvent was diluted with a 50:50 mix of acetone and water and applied to the surface of the soil. After treatment the plants were placed in a greenhouse where they received 0.64 cm of overhead irrigation. All subsequent watering consisted of a light overhead mist and/or subirrigation as needed for germination and growth. Tables 5 and 6 below relate to warm season plant species which were placed after pre-emergence treatment in a greenhouse with a 30/21° C. day/night temperature regime. Tables 7 and 8 below relates to cool season plant species placed after pre-emergence treatment in a greenhouse or growth chamber with an 18/13° C. day/night temperature regime.
(§2) Approximately 14 days after planting and treating, the plants were observed and herbicidal efficacy recorded as percent inhibition by comparison with untreated plants.
The plant species usually regarded as weeds which were utilized in the tests are identified in the tables below according to the following legend, in which “d” indicates a dicotyledonous species and “m” a monocotyledonous species. All monocotyledonous species included in the tests herein are grasses.

CONAR (field bindweed) [3] = experiment: Pre-plant incorporated (PPI) herbicidal activity, warm season; type: in vivo, Convolvulus arvensis; conditions: GR80 = lowest tested rate with 80% or greater inhibition, approx. 14 days after treating, 30/21° C.
Protocol: (§3) In another set of tests, the pre-plant incorporated (PPI) activity of compounds of this invention was evaluated on the same species as for the pre-emergence tests described above. In the PPI tests the following procedure, designed to simulate PPI application, was used.
(§4) A pre-prepared topsoil mixture (described above) was placed in a pot and compacted to a depth of 1.0 to 1.25 cm from the top of the pot. Seeds of each of several monocotyledonous and dicotyledonous annual plant species were placed on top of the soil. A sufficient quantity of soil to cover the seeds and level fill the pot was weighed into an open container. A known amount of the test compound was dissolved or suspended in an organic solvent and applied by spraying to this cover soil. The cover soil was thoroughly mixed to distribute the test compound throughout the cover soil, and was then applied as a cover layer over the seeds. Untreated soil was used as a cover layer for control pots. After treatment the plants were placed in a greenhouse where they received 0.64 cm of overhead irrigation. All subsequent watering consisted of a light overhead mist and/or subirrigation as needed for germination and growth. Tables 9 and 10 below relate to warm season plant species which were placed after pre-emergence treatment in a greenhouse with a 30/21° C. day/night temperature regime. Tables 11 and 12 below relates to cool season plant species placed after pre-emergence treatment in a greenhouse or growth chamber with an 18/13° C. day/night temperature regime. Only the compounds of Examples 1, 6, 8, 11, 13 and 15-20 were included in PPI tests.
as §2

KCHSC (kochia) [4] = experiment: Pre-plant incorporated (PPI) herbicidal activity, cool season; type: in vivo, Kochia scoparia; conditions: for PPI activity GR80, KCHSC: pre-plant incorporated, lowest tested rate with 80% or greater inhibition, about 14 days; for Percent inhibition KCHSC: weed, PPI application
Protocol: as §3, §4, §2

BROTE (downy brome) = experiment: Pre-emergence herbicidal activity, cool season; type: in vivo, Bromus tectorum; conditions: GR80 = lowest tested rate (300, 100, 30, 10 g/ha) with 80% or greater inhibition; approx. 14 days after treating; 18/13° C.
In short: as §1

ABUTH (velvetleaf) = experiment: Pre-emergence herbicidal activity, warm season; type: in vivo, Abutilon theophrasti; conditions: for Pre-emergence activity (GR80) ABUTH: GR80 = lowest tested rate (300, 100, 30, 10 g/ha) with 80% or greater inhibition, approx. 14 days after treating, 30/21° C.
In short: as §1

[5] = tested on: AGRRE (quackgrass (seedling)); experiment: Pre-emergence herbicidal activity, cool season; type: in vivo, Elymus repens; conditions: GR80 = lowest tested rate (300, 100, 30, 10 g/ha) with 80% or greater inhibition; approx. 14 days after treating; 18/13° C.
In short: as §1

[6] = tested on: CIRAR (canada thistle (seedling)); experiment: Pre-plant incorporated (PPI) herbicidal activity, warm season; type: in vivo, Cirsium arvense; conditions: GR80 = lowest tested rate with 80% or greater inhibition, approx. 14 days after treating, 30/21° C.
Protocol: as §3, §4, §2

POROL (common purslane) = experiment: as above; type: in vivo, Portulaca oleracea; conditions: GR80 = lowest tested rate with 80% or greater inhibition, approx. 14 days after treating, 30/21° C.
Protocol: as §3, §4, §2

| SMILES | Pre-emergence activity (GR80) CONAR (CONAR (field bindweed) [1]) | Post-emergence activity GR80, ALOMY (ALOMY (blackgrass)) | Pre-emergence activity (GR80) LOLMG (LOLMG (annual ryegrass)) | Pre-emergence activity GR80, KCHSC (KCHSC (kochia) [2]) | PPI activity (GR80) CONAR (CONAR (field bindweed) [3]) | PPI activity GR80, KCHSC (KCHSC (kochia) [4]) | Pre-emergence activity (GR80) BROTE (BROTE (downy brome)) | inhibition at 10 g/ha (ABUTH (velvetleaf); Abutilon theophrasti, pre-emergence application, 10 g/ha, read-out: Percent inhibition, weed ABUTH) [%] | inhibition at 30 g/ha (ABUTH (velvetleaf); Abutilon theophrasti, pre-emergence application, 30 g/ha, read-out: Percent inhibition, weed ABUTH) [%] | inhibition at 300 g/ha (ABUTH (velvetleaf); Abutilon theophrasti, pre-emergence application, 300 g/ha, read-out: Percent inhibition, weed ABUTH) [%] | inhibition at 900 g/ha (ABUTH (velvetleaf); Abutilon theophrasti, pre-emergence application, 900 g/ha, read-out: Percent inhibition, weed ABUTH) [%] | Pre-emergence activity (GR80) ABUTH (ABUTH (velvetleaf)) [g/ha] | Pre-emergence activity (GR80) AGRRE [5] [g/ha] | PPI activity (GR80) CIRAR [6] [g/ha] | PPI activity (GR80) POROL (POROL (common purslane)) [g/ha] | Percent inhibition KCHSC (KCHSC (kochia) [4]; 10 g/ha) [%] | Percent inhibition KCHSC (KCHSC (kochia) [4]; 30 g/ha) [%] | Percent inhibition KCHSC (KCHSC (kochia) [4]; 100 g/ha) [%] | Percent inhibition KCHSC (KCHSC (kochia) [4]; 300 g/ha) [%] | Percent inhibition KCHSC (KCHSC (kochia) [4]; 900 g/ha) [%] |
| --- | --- | --- | --- | --- | --- | --- | --- | --- | --- | --- | --- | --- | --- | --- | --- | --- | --- | --- | --- | --- |
| CCN(CC)C(=O)n1cnc(S(=O)(=O)C(F)(F)Br)n1 [Example 1, 3-(bromodifluoromethylsulfonyl)-1-(N,N-diethylcarbamoyl)-1,2,4-triazole] | 300 g/ha | [empty] | 100 g/ha | 300 g/ha | 100 g/ha | 100 g/ha | 300 g/ha | 0 | 0 | 0 | 0 | 300 | 300 | 100 | 30 | – | – | – | – | – |
| CCN(CC)C(=O)n1cnc(S(=O)(=O)C(F)(F)F)n1 [Example 2] | 300 g/ha | – | 300 g/ha | 300 g/ha | – | – | 300 g/ha | – | – | – | – | – | 100 | – | – | – | – | – | – | – |
| CCN(CC)C(=O)n1cnc(S(=O)(=O)C(F)(F)Cl)n1 [Example 3] | 300 g/ha | – | – | 300 g/ha | – | – | * (activity observed, at least at highest rate, but <80% inhibition) | – | – | – | – | – | – | – | – | – | – | – | – | – |
| CCN(CC)C(=O)n1cnc(S(=O)(=O)C(F)(F)C(F)(F)Br)n1 [Example 4] | – | – | 300 g/ha | 100 g/ha | – | – | 300 g/ha | – | – | – | – | – | 30 | – | – | – | – | – | – | – |
| CCN(CC)C(=O)n1cnc(S(=O)(=O)C(F)(F)C(=O)c2ccccc2)n1 [Example 6] | – | – | 300 g/ha | 300 g/ha | * (activity observed, at least at highest rate, but <80% inhibition) | 300 g/ha | – | – | – | – | – | – | 300 | 100 | 300 | – | – | – | – | – |
| CCSC(F)(F)S(=O)(=O)c1ncn(C(=O)N(CC)CC)n1 [Example 8, 1-(N,N-diethylcarbamoyl)-3-[difluoro(ethylthio)methylsulfonyl]-1,2,4-triazole] | 100 g/ha | [empty] | – | [empty] | 300 g/ha | 100 g/ha | * (activity observed, at least at highest rate, but <80% inhibition) | – | – | – | – | 300 | – | 100 | 100 | – | – | – | – | – |
| CCN(CC)C(=O)n1cnc(S(=O)(=O)C(F)(F)SC)n1 [Example 9] | 300 g/ha | [empty] | * (activity observed, at least at highest rate, but <80% inhibition) | 300 g/ha | – | – | 100 g/ha | – | – | – | – | – | – | – | – | – | – | – | – | – |
| C=C(CC(F)(F)S(=O)(=O)c1ncn(C(=O)N(CC)CC)n1)C[Si](C)(C)C [Example 20] | * (activity observed, at least at highest rate, but <80% inhibition) | [empty] | – | [empty] | * (activity observed, at least at highest rate, but <80% inhibition) | [empty] | – | – | – | – | – | 300 | – | 100 | 100 | 50 | 50 | 100 | 100 | 100 |
